Assay results reported in patent publication US6352989B1, “Nitrogenous heterocyclic derivatives and medicine thereof” (Eisai Co., Ltd., priority 1998, dated 2002).

Row | melting point [°C] | Compound
1 | 75 to 77 | CCCN(Cc1ccccc1)c1cccc(-c2nc(NC)nc3cc(OC)c(OC)cc23)c1 [Example 41, 4-[3-(N-benzyl-N-propylamino)phenyl]-6,7-dimethoxy-2-methylaminoquinazoline]
2 | 198 to 200 | CNc1nc(-c2cccc(N(C)C(=O)c3ccccc3)c2)c2cc(OC)c(OC)cc2n1 [Example 42, 4-[3-(N-benzoyl-N-methylamino)phenyl]-6,7-dimethoxy-2-methylaminoquinazoline]
3 | 199 to 201 | CNc1nc(-c2cccc(-n3cccc3)c2)c2cc(OC)c(OC)cc2n1 [Example 43, 6,7-Dimethoxy-2-methylamino-4-[3-(1-pyrrolyl)phenyl]quinazoline]
4 | 183 to 185 | CNc1nc(-c2cccc(-c3ccccc3)c2)c2cc(OC)c(OC)cc2n1 [Example 46, 4-(3-Biphenylyl)-6,7-dimethoxy-2-methylaminoquinazoline]
5 | 186 to 188 | CNc1nc(-c2cccc(-c3cccnc3)c2)c2cc(OC)c(OC)cc2n1 [Example 47, 6,7-Dimethoxy-2-methylamino-4-[3-(3-pyridyl)phenyl]quinazoline]
6 | 149 to 151 | CNc1nc(-c2cccc(-c3ccc(C)c(C)c3)c2)c2cc(OC)c(OC)cc2n1 [Example 48, 6,7-Dimethoxy-4-(3′,4′-dimethyl-3-biphenylyl)-2-methylaminoquinazoline]
7 | 237 to 239 | CNc1nc(-c2cccc(-c3ccc4nccn4c3)c2)c2cc(OC)c(OC)cc2n1 [Example 50, 6,7-Dimethoxy-4-[3-(imidazo[1.2-a]pyridine-6-yl)phenyl]-2-methylaminoquinazoline]
8 | 163 to 165 | CNc1nc(-c2cccc(-c3cccc([S+](C)[O-])c3)c2)c2cc(OC)c(OC)cc2n1 (stereo not shown) [Example 55, 6,7-Dimethoxy-2-methylamino-4-(3-methylsulfinyl-3-biphenylyl)quinazoline]
9 | 225 to 227 | CNc1nc(-c2cccc(-c3cncc(OC)c3)c2)c2cc(OC)c(OC)cc2n1 [Example 57, 6,7-Dimethoxy-4-[3-(5-methoxy-3-pyridyl)phenyl]-2-methylaminoquinazoline]
10 | 208 to 210 | CNc1nc(-c2cccc(-c3cncc([S+](C)[O-])c3)c2)c2cc(OC)c(OC)cc2n1 (stereo not shown) [Example 59, 6,7-Dimethoxy-2-methylamino-4-[3-(5-methylsulfinyl-3-pyridyl)phenyl]quinazoline]
11 | 95 to 97 | CNc1nc(-c2cccc(CCc3ccccc3)c2)c2cc(OC)c(OC)cc2n1 [Example 66, 6,7-Dimethoxy-2-methylamino-4-[3-(2-phenylethyl)phenyl]quinazoline]
12 | 103 to 105 | CNc1nc(-c2cccc(C#Cc3cccnc3)c2)c2cc(OC)c(OC)cc2n1 [Example 67, 6,7-Dimethoxy-2-methylamino-4-[3-[2-(3-pyridyl)ethynyl]phenyl]quinazoline]
13 | 136 to 138 | CNc1ccc(C#Cc2cccc(-c3nc(NC)nc4cc(OC)c(OC)cc34)c2)cn1 [Example 68, 6,7-Dimethoxy-2-methylamino-4-[3-[2-(6-methylamino-3-pyridyl)ethynyl]phenyl]quinazoline]
14 | 110 to 112 | CNc1nc(-c2cccc(/C=C/c3ccccc3)c2)c2cc(OC)c(OC)cc2n1 [Example 69, 6,7-Dimethoxy-2-methylamino-4-[3-(2-phenylethenyl)phenyl]quinazoline]
15 | 242 to 244 | CNc1nc(-c2cccc(C(=O)Nc3ccccc3)c2)c2cc(OC)c(OC)cc2n1 [Example 70, 6,7-Dimethoxy-2-methylamino-4-(3-phenylcarbamoylphenyl)quinazoline]
16 | 238 to 240 | CNc1nc(-c2cccc(C(=O)Nc3cccnc3)c2)c2cc(OC)c(OC)cc2n1 [Example 71, 6,7-Dimethoxy-2-methylamino-4-[3-(3-pyridyl)carbamoylphenyl]quinazoline]
